“Also recorded” adds a separate entry of the source. Read-outs that look alike come from different tables or passages of the source.
Experiments:
[1] = tested on: ALS patients; settings: cited from earlier work
[2] = tested on: ALS patients; experiment: Clinical outcome (ALSFRS) of ALS patients with or without continuous high-dose vitamin E; format: in vivo, human; settings: ALSFRS after 1 yr of melatonin treatment
Description: Remarkably, most of these patients (n=12) had already been on high-dose vitamin E, another antioxidant, for 10.4±2.5 months before starting the melatonin treatment.

[3] = tested on: ALS; settings: cited from earlier work; for clinical efficacy in ALS: clinical setting, literature
[4] = tested on: Alzheimer's disease (AD); settings: in vivo; cited from earlier work
[5] = tested on: ALS patients; experiment: Serum protein carbonyl determination in ALS patients (2,4-dinitrophenylhydrazine method); format: in vivo, human; settings: for serum protein carbonyl level under high-dose vitamin E: ALS patients (n=12) on high-dose vitamin E for 10.4±2.5 months before starting melatonin
Description: Protein carbonyl content of blood serum and other body fluids can be determined according to the 2,4-dinitrophenylhydrazine method described by Levine et al. (Levine Methods Enzymol 1990: 186: 464-478). The protein content can be measured according to Lowry et al. (Lowry J Biol Chem 1951: 193: 265-275) to enable a normalization of the protein carbonyl level. Other suitable methods and reagents known in the field to measure protein content and/or the content of protein carbonyls can also be used. Protein carbonyl measurements were performed in the serum of 19 consecutively admitted ALS patients (61.7±1.9 yr, 12 males, […] daily as suppositories at bedtime) and of ten healthy controls (61.2±2.0 years, five males, five females). Protein carbonyls were determined by a variant of the 2,4-dinitrophenylhydrazine method (Levine Methods Enzymol 1990: 186: 464-478). Serum was diluted 1:10 with ice-cold 5-mM pf potassium phosphate buffer, pH 7.5, containing leupeptin (0.5 μg/mL), aprotinin (0.5 μg/mL), and pepstatin A (0.7 μg/mL); 300 μL was used for a single determination. Deviations from the original procedure concerned elimination of the chromogen: protein pellets were washed three times with 1 mL of ethanol/ ethylacetate (1:1); particular attention was given to thorough resuspension (vortexing) and complete removal of the supernatant using Pasteur pipettes, and thereafter, stripes of blotting paper. Protein was measured according to Lowry et al. (Lowry J Biol Chem 1951: 193: 265-275).

[6] = tested on: ALS mouse model; settings: high-dose oral melatonin; U.S. Pub. No. 2004/0192745; cited from earlier work

Nc1nc2ccc(OC(F)(F)F)cc2s1 [RILUZOLE®, 2-amino-6-(trifluoromethoxxy)benzothiazole]
other important outcome measures [1]: lacked benefit | side effects [1]: asthenia, nausea, anorexia, diarrhea, headache, and increase in liver transaminases; also recorded: enhances catabolism

vitamin E
clinical outcome (ALSFRS) [2]: did not reveal any beneficial effect | risk of developing ALS ([3]; 10-yr prospective study with over 900,000 individuals, regular intake of vitamin E): decreased risk of developing ALS | clinical efficacy in ALS [3]: did not reveal any beneficial effect; also recorded: none of the antioxidative compounds tested, including vitamin E, proved to be effective | clinical efficacy in ALS ([3]; listed as Vitamin E): ineffective in ALS treatment | disease progression in AD [4]: slowing of disease progression | serum protein carbonyl level under high-dose vitamin E [5]: does not change the level of serum protein carbonyls | serum protein carbonyl level under high-dose vitamin E ([5]; listed as Vitamin E): does not decrease the serum protein carbonyl level

COc1ccc2[nH]cc(CCNC(C)=O)c2c1 [melatonin]
survival of ALS mouse model [6]: prolongation of survival; also recorded: exhibit efficacy | serum protein carbonyl content after melatonin treatment ([5]; ALS patients n=19, 300 mg melatonin daily as suppositories at bedtime, mean treatment time 4.68±0.22 months, versus matched healthy controls n=10): decrease to levels of matched healthy controls; also recorded: normalized to control values; also recorded: fully reverted to control levels; also recorded: normalizes the serum protein carbonyl level to control level
